The term IC50 denotes the concentration at which inhibition is half-maximal. Low readings indicate inhibition by little substance, high ones a need for much substance.

This note sets out measurements from patent US10005792B2, “Aminoindane-, aminotetrahydronaphthalene- and aminobenzocyclobutane-derived PRMT5-inhibitors” (CTXT PTY LTD, priority 2014, dated 2018).

SMILES strings stand for the structures.

Sequence of Full-length PRMT5 enzyme co-expressed with MEP50 (O14744 whole entry): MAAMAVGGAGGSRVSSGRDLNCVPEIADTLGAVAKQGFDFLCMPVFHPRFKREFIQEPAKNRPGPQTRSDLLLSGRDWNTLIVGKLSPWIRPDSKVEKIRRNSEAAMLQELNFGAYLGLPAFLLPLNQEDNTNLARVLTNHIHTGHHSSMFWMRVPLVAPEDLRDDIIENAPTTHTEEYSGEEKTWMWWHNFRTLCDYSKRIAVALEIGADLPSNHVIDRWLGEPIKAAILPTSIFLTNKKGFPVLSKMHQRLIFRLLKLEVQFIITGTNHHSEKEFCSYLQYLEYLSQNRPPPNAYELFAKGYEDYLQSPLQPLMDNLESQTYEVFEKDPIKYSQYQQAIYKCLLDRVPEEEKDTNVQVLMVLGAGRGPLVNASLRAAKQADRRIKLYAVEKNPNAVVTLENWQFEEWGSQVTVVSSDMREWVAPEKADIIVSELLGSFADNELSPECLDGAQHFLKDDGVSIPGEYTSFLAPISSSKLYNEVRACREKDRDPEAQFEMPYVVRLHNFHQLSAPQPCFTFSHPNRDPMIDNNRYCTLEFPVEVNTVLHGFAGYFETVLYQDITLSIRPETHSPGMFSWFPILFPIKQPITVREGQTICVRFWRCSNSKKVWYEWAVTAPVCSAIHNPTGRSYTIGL
Sequence of Full-length PRMT5 enzyme co-expressed with MEP50 (Q9BQA1 whole entry partner): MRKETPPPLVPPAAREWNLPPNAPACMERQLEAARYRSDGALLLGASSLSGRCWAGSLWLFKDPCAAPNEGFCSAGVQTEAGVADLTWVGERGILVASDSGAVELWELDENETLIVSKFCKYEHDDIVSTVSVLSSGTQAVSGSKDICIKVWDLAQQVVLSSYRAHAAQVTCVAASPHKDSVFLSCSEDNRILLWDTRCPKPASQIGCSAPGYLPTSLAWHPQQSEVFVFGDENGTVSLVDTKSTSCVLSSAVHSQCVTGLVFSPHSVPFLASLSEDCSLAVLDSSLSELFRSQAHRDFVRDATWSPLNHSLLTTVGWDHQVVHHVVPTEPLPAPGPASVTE

This experiment addresses Full-length PRMT5 enzyme co-expressed with MEP50 (Homo sapiens (Human), UniProt O14744). The experiment can be described thus: Revised PRMT5 Biochemical Assay. As to conditions: 1 μM histone H4 derived peptide substrate, 1 μM S-Adenosyl methionine, 4 hours at 37 degree Celsius, Transcreener EPIGEN fluorescence polarisation. How it is done:
Compounds of the invention may be tested for in vitro activity in the following assay: A histone H4 derived peptide is used as substrate (amino acid sequence: […]NH2). Full-length PRMT5 enzyme (NCBI Reference sequence NP-006100.2) was co-expressed with Hiss-MEP50 in insect cells and purified via Nickel immobilized metal affinity and gel filtration chromatography (“the enzyme”).
The 6 μL reactions are run in Greiner brand black 384-well low volume assay plates. All reactions contained assay buffer (phosphate buffered saline, 0.01% (v/v) Tween-20, 0.01% (w/v) albumin from chicken egg white, 1 mM Dithiothreitol, 1 μM peptide substrate, 1 μM S-Adenosyl methionine, and 15 ng/reaction enzyme, with the enzyme being omitted from negative control reactions. Compounds were added in a volume of 100 nL from dilution series prepared in DMSO, positive and negative control reactions receiving the same volume DMSO without compound. The plates were sealed with adhesive seals and incubated for 4 hours at 37 degree Celsius. Reaction progress was measured using the Transcreener™ EPIGEN methyltransferase assay (BellBrook Labs, Madison, Wis.) as recommended by the manufacturer. To each reaction 2 μL detection mix were added, containing coupling enzymes, fluorescence polarisation tracer, and AMP antibody. Plates were incubated for 90 minutes before being read on a PerkinElmer EnVision™ plate reader in fluorescence polarisation mode. IC50 values were obtained from the raw readings by calculating percent inhibition (% I) for each reaction relative to controls on the same plate (% I=(I−CN)/(CP−CN) where CN/CP are the averages of the negative/positive reactions, respectively), then fitting the % I data vs. compound concentration [I] to % I=([…]) where A is the lower asymptote, B is the upper asymptote, C is the IC50 value, and D is the slope.
In general terms: In fluorescence polarisation assays a small probe gives low polarisation when free and higher when bound to something large.
Compound `O=C(NC[C@@H](O)CNC1Cc2ccccc2C1)c1ccc(C(=O)N2CCC(O)CC2)cc1` [Compound 60, (S)-N-(3-((2,3-dihydro-1H-inden-2-yl)amino)-2-hydroxypropyl)-4-(4-hydroxypiperidine-1-carbonyl)benzamide] gave an IC50 of 630 nM.
The same measure for `O=C(NC[C@@H](O)CNC1Cc2ccccc2C1)c1ccc(C(=O)N2CCC(CO)CC2)cc1` [Compound 61, (S)-N-(3-((2,3-dihydro-1H-inden-2-yl)amino)-2-hydroxypropyl)-4-(4-(hydroxymethyl)piperidine-1-carbonyl)benzamide]: 180 nM.
As to `O=C(NC[C@@H](O)CNC1Cc2ccccc2C1)c1cccc(C(=O)N2CCOCC2)c1` [Compound 62, (S)-N-(3-((2,3-dihydro-1H-inden-2-yl)amino)-2-hydroxypropyl)-3-(morpholine-4-carbonyl)benzamide], inhibition was half-maximal at 6920 nM (IC50).
Consider `O=C(NCC(O)CNC1Cc2ccccc2C1)c1ccc(N2CCCCC2=O)cc1` (stereo not shown) [Compound 63, N-(3-((2,3-Dihydro-1H-inden-2-yl)amino)-2-hydroxypropyl)-4-(2-oxopiperidin-1-yl)benzamide], for which half-maximal inhibition (IC50) required 7300 nM.
`CC(=O)N1CCC(Nc2ccc(C(=O)NCC(O)CNC3Cc4ccccc4C3)cc2)CC1` (stereo not shown) [Compound 64, 4-((1-Acetylpiperidin-4-yl)amino)-N-(3-((2,3-dihydro-1H-inden-2-yl)amino)-2-hydroxypropyl) benzamide] showed an IC50 of 1100 nM.
The same measure for `O=C(NC[C@@H](O)CNC1Cc2ccccc2C1)c1ccc(C(=O)N2CCS(=O)(=O)CC2)cc1` [Compound 65, (S)—N-(3-((2,3-dihydro-1H-inden-2-yl)amino)-2-hydroxypropyl)-4-(1,1-dioxidothiomorpholine-4-carbonyl)benzamide]: 1300 nM; for `O=C(NC[C@@H](O)CNC1Cc2ccccc2C1)c1ccc(C(=O)N2CC3(COC3)C2)cc1` [Compound 66, (S)-N-(3-((2,3-dihydro-1H-inden-2-yl)amino)-2-hydroxypropyl)-4-(2-oxa-6-azaspiro[3.3]heptane-6-carbonyl)benzamide]: 1560 nM; for `O=C(NC[C@@H](O)CNC1Cc2ccccc2C1)c1ccc(C(=O)N2CCCCC2)nc1` [Compound 68, (S)-N-(3-((2,3-dihydro-1H-inden-2-yl)amino)-2-hydroxypropyl)-6-(piperidine-1-carbonyl)nicotinamide]: 6170 nM.
The same measure for `O=C(NC[C@H](O)CNC1Cc2ccccc2C1)c1ccc(C(=O)N2CCCCC2)nc1` [Compound 69, (R)-N-(3-((2,3-dihydro-1H-inden-2-yl)amino)-2-hydroxypropyl)-6-(piperidine-1-carbonyl)nicotinamide]: 10000 nM.
The same measure for `CC[C@@H]1COCCN1C(=O)c1ccc(C(=O)NC[C@@H](O)CNC2Cc3ccccc3C2)cc1` [Compound 71, N-((S)-3-((2,3-dihydro-1H-inden-2-yl)amino)-2-hydroxypropyl)-4-((R)-3-ethylmorpholine-4-carbonyl)benzamide]: 237 nM; for `CC1(C)CN(C(=O)c2ccc(C(=O)NC[C@@H](O)CNC3Cc4ccccc4C3)cc2)CCO1` [Compound 72, (S)-N-(3-((2,3-dihydro-1H-inden-2-yl)amino)-2-hydroxypropyl)-4-(2,2-dimethylmorpholine-4-carbonyl)benzamide]: 341 nM; for `O=C(NC[C@@H](O)CNC1Cc2ccccc2C1)c1ccc(CC(=O)N2CCCCC2)nc1` [Compound 78, (S)-N-(3-((2,3-dihydro-1H-inden-2-yl)amino)-2-hydroxypropyl)-6-(2-oxo-2-(piperidin-1-yl)ethyl)nicotinamide]: 5580 nM.
Take `COCC1CCCCN1C(=O)c1ccc(C(=O)NC[C@@H](O)CNC2Cc3ccccc3C2)cc1` (stereo partly drawn) [Compound 80, N-((S)-3-((2,3-dihydro-1H-inden-2-yl)amino)-2-hydroxypropyl)-4-(2-(methoxymethyl)piperidine-1-carbonyl)benzamide]: the 50% inhibitory concentration (IC50) came out at 253 nM.
